Legend:
Type in all cases: cell-based
[1] = molecular target: human α1G T-type channels (Homo sapiens, UniProt O43497); assay: T-type calcium channel block, whole cell patch clamp, α1G; conditions: HEK cells stably expressing human α1G; mainly non-inactivated protocol; values above 10,000 nM represented as 10000
In short: (§1)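 Cells are stable HEK 293 lines carrying human α1G or α1H channels, patched in whole-cell mode. Resting block comes from the non-inactivated pre-pulse; voltage-dependent block from the inactivated protocol.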

[2] = molecular target: human α1H T-type channels (Homo sapiens, UniProt O95180); assay: T-type calcium channel block, whole cell patch clamp, α1H; conditions: HEK cells stably expressing human α1H; mainly non-inactivated protocol; values above 10,000 nM represented as 10000
In short: as §1

[3] = molecular target: N-type calcium channel subunits (α1B, α2δ, and β3a) (Homo sapiens, UniProt Q00975); assay: Block of Cav2.2 channel, whole cell voltage clamp, manual and PatchXpress; conditions: Table 5; table follows Assay Example 3 (whole cell voltage clamp / PatchXpress); assay not given
In short: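 Percent block taken as current amplitude ratio with versus without compound, applied in rising doses; IC50 fitted where one cell received multiple doses. Protocol: 50 ms pulses to +20 mV at 0.067 Hz from […] or −90 mV holding; P/n leak subtraction, no junction-potential correction; manual and PatchXpress recordings.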

human α1G T-type channels, sequence (O43497 whole entry): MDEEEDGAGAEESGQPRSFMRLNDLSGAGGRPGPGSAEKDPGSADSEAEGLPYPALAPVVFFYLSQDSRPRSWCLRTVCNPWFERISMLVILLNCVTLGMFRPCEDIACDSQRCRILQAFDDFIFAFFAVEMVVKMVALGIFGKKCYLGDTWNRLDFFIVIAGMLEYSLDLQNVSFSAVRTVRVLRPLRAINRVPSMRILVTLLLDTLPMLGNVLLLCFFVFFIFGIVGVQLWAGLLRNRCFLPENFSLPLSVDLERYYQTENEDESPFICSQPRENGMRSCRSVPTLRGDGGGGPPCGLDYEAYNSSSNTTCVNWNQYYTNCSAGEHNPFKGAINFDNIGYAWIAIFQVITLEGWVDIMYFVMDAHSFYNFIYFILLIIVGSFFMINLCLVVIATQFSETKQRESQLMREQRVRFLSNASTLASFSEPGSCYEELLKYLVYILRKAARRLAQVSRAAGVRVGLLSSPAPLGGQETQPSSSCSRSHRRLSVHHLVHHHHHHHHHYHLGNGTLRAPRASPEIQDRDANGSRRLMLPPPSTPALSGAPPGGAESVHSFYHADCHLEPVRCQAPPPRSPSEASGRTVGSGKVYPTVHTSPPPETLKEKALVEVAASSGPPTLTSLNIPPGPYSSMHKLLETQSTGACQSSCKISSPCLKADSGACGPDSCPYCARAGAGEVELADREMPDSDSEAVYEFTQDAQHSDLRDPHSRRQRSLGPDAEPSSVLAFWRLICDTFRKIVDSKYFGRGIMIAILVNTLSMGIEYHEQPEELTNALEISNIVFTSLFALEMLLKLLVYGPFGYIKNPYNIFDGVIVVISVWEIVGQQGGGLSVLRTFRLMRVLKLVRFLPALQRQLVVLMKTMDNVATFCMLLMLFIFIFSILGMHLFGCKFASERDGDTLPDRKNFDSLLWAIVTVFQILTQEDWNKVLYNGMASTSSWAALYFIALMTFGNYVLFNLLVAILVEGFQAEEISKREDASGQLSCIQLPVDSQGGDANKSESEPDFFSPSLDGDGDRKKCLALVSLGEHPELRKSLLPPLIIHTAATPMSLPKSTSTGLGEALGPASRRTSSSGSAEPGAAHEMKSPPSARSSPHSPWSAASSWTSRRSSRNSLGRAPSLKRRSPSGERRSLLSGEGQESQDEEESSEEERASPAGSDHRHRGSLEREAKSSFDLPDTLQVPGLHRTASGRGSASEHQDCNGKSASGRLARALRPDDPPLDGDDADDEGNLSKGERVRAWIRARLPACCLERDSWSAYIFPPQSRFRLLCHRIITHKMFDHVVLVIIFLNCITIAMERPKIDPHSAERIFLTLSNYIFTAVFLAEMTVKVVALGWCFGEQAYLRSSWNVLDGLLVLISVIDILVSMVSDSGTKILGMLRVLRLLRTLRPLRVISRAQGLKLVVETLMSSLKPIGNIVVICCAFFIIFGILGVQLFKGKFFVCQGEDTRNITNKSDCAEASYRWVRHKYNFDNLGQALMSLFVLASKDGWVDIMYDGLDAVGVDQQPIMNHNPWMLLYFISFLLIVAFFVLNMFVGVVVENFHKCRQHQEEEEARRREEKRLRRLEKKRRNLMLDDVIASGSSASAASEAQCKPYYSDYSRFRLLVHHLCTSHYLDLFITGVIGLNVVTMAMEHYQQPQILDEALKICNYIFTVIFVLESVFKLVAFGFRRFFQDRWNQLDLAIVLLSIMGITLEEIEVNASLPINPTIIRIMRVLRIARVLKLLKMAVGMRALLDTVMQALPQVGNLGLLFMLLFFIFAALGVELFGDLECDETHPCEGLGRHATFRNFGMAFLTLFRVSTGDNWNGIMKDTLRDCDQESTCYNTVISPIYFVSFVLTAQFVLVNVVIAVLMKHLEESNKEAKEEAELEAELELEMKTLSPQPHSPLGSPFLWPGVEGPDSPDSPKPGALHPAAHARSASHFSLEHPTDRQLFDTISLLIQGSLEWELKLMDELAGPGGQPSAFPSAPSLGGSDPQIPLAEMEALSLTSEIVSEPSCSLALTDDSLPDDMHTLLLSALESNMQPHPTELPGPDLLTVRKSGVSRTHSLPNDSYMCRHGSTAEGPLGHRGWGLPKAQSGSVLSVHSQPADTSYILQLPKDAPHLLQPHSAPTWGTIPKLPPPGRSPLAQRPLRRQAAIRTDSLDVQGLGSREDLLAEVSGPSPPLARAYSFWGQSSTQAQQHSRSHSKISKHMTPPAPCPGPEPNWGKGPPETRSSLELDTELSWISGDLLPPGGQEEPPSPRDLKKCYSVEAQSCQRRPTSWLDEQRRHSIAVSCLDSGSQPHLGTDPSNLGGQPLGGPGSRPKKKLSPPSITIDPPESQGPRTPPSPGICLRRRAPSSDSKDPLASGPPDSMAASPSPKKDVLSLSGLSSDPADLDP
human α1H T-type channels, sequence (O95180 whole entry): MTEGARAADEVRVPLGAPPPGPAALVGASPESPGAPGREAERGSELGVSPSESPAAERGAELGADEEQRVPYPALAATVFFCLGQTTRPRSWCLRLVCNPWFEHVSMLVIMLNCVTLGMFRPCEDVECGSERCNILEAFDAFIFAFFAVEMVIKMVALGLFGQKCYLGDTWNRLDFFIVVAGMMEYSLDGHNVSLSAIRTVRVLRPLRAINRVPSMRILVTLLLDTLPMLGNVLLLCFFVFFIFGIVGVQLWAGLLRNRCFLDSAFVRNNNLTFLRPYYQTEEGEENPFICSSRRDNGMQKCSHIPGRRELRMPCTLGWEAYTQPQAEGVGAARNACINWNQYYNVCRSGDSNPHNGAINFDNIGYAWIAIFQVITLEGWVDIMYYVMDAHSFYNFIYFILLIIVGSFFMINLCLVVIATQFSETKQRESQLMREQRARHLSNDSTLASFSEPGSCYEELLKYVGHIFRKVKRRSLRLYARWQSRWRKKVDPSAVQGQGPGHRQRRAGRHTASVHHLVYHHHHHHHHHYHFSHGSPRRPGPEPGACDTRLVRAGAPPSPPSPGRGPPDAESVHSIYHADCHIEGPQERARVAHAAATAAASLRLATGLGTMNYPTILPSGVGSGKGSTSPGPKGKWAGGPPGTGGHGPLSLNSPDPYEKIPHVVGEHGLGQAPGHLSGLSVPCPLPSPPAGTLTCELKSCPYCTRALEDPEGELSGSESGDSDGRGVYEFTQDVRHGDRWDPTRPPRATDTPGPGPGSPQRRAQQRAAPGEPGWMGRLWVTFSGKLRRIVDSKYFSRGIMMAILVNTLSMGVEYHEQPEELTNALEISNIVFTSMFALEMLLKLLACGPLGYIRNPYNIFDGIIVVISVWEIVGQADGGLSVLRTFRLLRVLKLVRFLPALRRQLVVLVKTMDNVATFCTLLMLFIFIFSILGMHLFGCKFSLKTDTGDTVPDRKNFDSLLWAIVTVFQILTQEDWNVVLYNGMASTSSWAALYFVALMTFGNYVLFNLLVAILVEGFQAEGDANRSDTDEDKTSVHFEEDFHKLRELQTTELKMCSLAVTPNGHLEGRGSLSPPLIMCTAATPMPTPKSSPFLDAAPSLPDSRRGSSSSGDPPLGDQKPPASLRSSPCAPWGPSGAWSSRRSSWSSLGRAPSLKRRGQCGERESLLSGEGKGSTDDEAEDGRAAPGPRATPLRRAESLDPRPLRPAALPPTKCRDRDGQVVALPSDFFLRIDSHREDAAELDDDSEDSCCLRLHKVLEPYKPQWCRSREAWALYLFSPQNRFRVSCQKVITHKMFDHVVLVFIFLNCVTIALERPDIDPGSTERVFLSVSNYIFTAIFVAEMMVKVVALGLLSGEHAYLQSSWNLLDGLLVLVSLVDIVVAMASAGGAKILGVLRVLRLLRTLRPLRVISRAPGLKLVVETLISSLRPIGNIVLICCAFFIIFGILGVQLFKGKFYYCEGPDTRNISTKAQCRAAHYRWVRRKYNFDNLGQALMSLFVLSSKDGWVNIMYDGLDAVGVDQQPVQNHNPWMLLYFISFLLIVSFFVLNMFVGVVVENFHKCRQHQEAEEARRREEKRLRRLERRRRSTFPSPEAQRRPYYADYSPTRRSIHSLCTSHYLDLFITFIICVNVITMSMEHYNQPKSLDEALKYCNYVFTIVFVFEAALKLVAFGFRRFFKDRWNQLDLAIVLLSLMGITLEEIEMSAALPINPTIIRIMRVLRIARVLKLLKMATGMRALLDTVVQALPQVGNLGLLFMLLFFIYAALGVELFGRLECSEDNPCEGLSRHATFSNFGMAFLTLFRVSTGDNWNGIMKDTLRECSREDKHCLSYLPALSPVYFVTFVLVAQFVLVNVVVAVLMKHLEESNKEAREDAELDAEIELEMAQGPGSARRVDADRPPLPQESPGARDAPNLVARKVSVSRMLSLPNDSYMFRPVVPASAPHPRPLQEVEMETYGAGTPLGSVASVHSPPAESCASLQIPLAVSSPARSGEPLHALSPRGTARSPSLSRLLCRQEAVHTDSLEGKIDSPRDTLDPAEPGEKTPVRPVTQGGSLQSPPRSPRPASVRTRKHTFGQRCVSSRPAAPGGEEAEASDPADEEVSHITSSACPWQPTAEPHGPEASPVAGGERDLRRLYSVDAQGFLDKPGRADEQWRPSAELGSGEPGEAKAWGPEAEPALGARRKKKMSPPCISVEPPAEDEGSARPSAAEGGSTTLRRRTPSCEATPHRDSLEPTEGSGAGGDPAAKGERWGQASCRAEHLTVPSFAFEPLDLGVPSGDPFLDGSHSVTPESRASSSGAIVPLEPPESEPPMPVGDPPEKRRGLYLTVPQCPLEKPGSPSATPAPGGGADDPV

Row | Structure (SMILES) | IC50 [1] [nM] | IC50 [2] [nM] | IC50 [3] [nM]
1 | CC1(S(=O)(=O)c2cccc(C(F)(F)F)c2)CCC(NC(=O)c2ccc(C(F)(F)F)nc2)CC1 (stereo not drawn) [Compound 1, N-(4-methyl-4-(3-(trifluoromethyl)phenylsulfonyl)cyclohexyl)-6-(trifluoromethyl) nicotinamide] | > 10000 | 7400 | 1030
2 | CC1(S(=O)(=O)c2cccc(C(F)(F)F)c2)CCC(NC(=O)c2cnc(C(F)(F)F)nc2)CC1 (stereo not drawn) [Compound 2, N-(4-methyl-4-(3-(trifluoromethyl)phenylsulfonyl)cyclohexyl)-2-(trifluoromethyl) pyrimidine-5-carboxamide] | 1380 | 1170 | 950
3 | Cn1nc(C(F)(F)F)cc1C(=O)NC1CCC(C)(S(=O)(=O)c2cccc(C(F)(F)F)c2)CC1 (stereo not drawn) [Compound 6, 1-methyl-N-(4-methyl-4-(3-(trifluoromethyl)phenylsulfonyl)cyclohexyl)-3-(trifluoromethyl)-1H-pyrazole-5-carboxamide] | > 10000 | > 10000 | 330
4 | CC(C)(C)NC(=O)CNC1CCC(C)(S(=O)(=O)c2cccc(C(F)(F)F)c2)CC1 (stereo not drawn) [Compound 15, N-tert-butyl-2-(4-methyl-4-(3-(trifluoromethyl)phenylsulfonyl)cyclohexylamino)acetamide] | > 10000 | 4620 | 50
5 | CC(C)(C)NC(=O)CNC1CCC(S(=O)(=O)c2cccc(C(F)(F)F)c2)CC1 (stereo not drawn) [Compound 16, N-tert-butyl-2-(4-(3-(trifluoromethyl)phenylsulfonyl)cyclohexylamino)acetamide] | > 10000 | 9180 | 140
6 | CC1(S(=O)(=O)c2cccc(C(F)(F)F)c2)CCC(NC(=O)CNC2CCCCC2)CC1 (stereo not drawn) [Compound 17, 2-(cyclohexylamino)-N-(4-methyl-4-(3-(trifluoromethyl)phenylsulfonyl)cyclohexyl)acetamide] | 2330 | 1420 | 260
7 | CC1(S(=O)(=O)c2cccc(C(F)(F)F)c2)CCN(C(=O)CNC2CCCCC2)CC1 [Compound 18, 2-(cyclohexylamino)-l-(4-methyl-4-(3-(trifluoromethyl)phenylsulfonyl)piperidin-l-yl)ethanone] | 3060 | 2720 | 390
8 | CC1(S(=O)(=O)c2cccc(C(F)(F)F)c2)CCC(NC(=O)c2cc(F)cc(Cl)c2)CC1 (stereo not drawn) [Compound 19, 3-chloro-5-fluoro-N-(4-methyl-4-(3-(trifluoromethyl)phenylsulfonyl)cyclohexyl)benzamide] | 5240 | 3020 | 60
9 | COc1cc(F)cc(C(=O)NC2CCC(C)(S(=O)(=O)c3cccc(C(F)(F)F)c3)CC2)c1 (stereo not drawn) [Compound 20, 3-fluoro-5-methoxy-N-(4-methyl-4-(3-(trifluoromethyl)phenylsulfonyl)cyclohexyl)benzamide] | 1970 | 1380 | 70
10 | CC1(S(=O)(=O)c2cccc(C(F)(F)F)c2)CCC(NC(=O)c2cc(C(F)(F)F)ccn2)CC1 (stereo not drawn) [Compound 21, N-(4-methyl-4-(3-(trifluoromethyl)phenylsulfonyl)cyclohexyl)-4-(trifluoromethyl)picolinamide] | 6560 | 4020 | 200
11 | CN(C(=O)CNC1CCC(S(=O)(=O)c2cccc(C(F)(F)F)c2)CC1)C(C)(C)C (stereo not drawn) [Compound 23, N-tert-butyl-N-methyl-2-(4-(3-(trifluoromethyl)phenylsulfonyl)cyclohexylamino)acetamide] | 2790 | 1190 | 240
12 | CC(C)(C)NC(=O)CN[C@H]1CC[C@@](F)(S(=O)(=O)c2cccc(C(F)(F)F)c2)CC1 [Compound 27, N-tert-butyl-2-((1S,4S)-4-fluoro-4-(3-(trifluoromethyl)phenylsulfonyl)cyclohexylamino)acetamide] | 760 | 720 | 250
13 | CC(C)(C)NC(=O)CN[C@H]1CC[C@](F)(S(=O)(=O)c2cccc(C(F)(F)F)c2)CC1 [Compound 28, N-tert-butyl-2-((1R,4R)-4-fluoro-4-(3-(trifluoromethyl)phenylsulfonyl)cyclohexylamino)acetamide] | 1230 | 1270 | 940
14 | O=C(NC[C@H]1CC[C@@H](S(=O)(=O)c2cccc(C(F)(F)F)c2)CC1)c1cc(F)cc(Cl)c1 [Compound 29, 3-chloro-5-fluoro-N-(((1S,4S)-4-(3-(trifluoromethyl)phenylsulfonyl)cyclohexyl)methyl)benzamide] | 260 | 430 | 610
15 | COc1cc(F)cc(C(=O)NC[C@H]2CC[C@@H](S(=O)(=O)c3cccc(C(F)(F)F)c3)CC2)c1 [Compound 30, 3-fluoro-5-methoxy-N-(((1S,4S)-4-(3-(trifluoromethyl)phenylsulfonyl)cyclohexyl)methyl)benzamide] | 1290 | 1410 | 720
16 | O=C(CNC[C@H]1CC[C@@H](S(=O)(=O)c2cccc(C(F)(F)F)c2)CC1)NC1CCCCC1 [Compound 36, N-cyclohexyl-2-(((1S,4S)-4-(3-(trifluoromethyl)phenylsulfonyl)cyclohexyl)methylamino)acetamide] | 5250 | 5110 | 740

Continued, values first:

Row | IC50 [1] [nM] | IC50 [2] [nM] | IC50 [3] [nM] | Structure (SMILES)
17 | > 10000 | > 10000 | 1580 | CC1(S(=O)(=O)c2cccc(C(F)(F)F)c2)CCC(NC(=O)c2ccn(CC(F)(F)F)n2)CC1 (stereo not drawn) [Compound 7, N-(4-methyl-4-(3-(trifluoromethyl)phenylsulfonyl)cyclohexyl)-l-(2,2,2-trifluoroethyl)-1H-pyrazole-3-carboxamide]
18 | > 10000 | 6710 | 2300 | O=C(NC1CCC(S(=O)(=O)c2cccc(C(F)(F)F)c2)CC1)c1ccc(C(F)(F)F)nc1 (stereo not drawn) [Compound 8, 6-(trifluoromethyl)-N-(4-(3-(trifluoromethyl)phenylsulfonyl)cyclohexyl)nicotinamide]
19 | 1130 | 1030 | 2520 | O=C(NC1CCC(S(=O)(=O)c2cccc(C(F)(F)F)c2)CC1)c1cnc(C(F)(F)F)nc1 (stereo not drawn) [Compound 9, 2-(trifluoromethyl)-N-(4-(3-(trifluoromethyl)phenylsulfonyl)cyclohexyl)pyrimidine-5-carboxamide]
20 | 4200 | 3820 | 1460 | O=C(NC1CCC(S(=O)(=O)c2cccc(C(F)(F)F)c2)CC1)c1ccc(C(F)(F)F)cn1 (stereo not drawn) [Compound 10, 5-(trifluoromethyl)-N-(4-(3-(trifluoromethyl)phenylsulfonyl)cyclohexyl)picolinamide]
21 | > 10000 | > 10000 | 150 | O=C(NC1CCC(S(=O)(=O)c2cccc(C(F)(F)F)c2)CC1)c1ccc(F)c(C(F)(F)F)c1 (stereo not drawn) [Compound 11, 4-fluoro-3-(trifluoromethyl)-N-(4-(3-(trifluoromethyl)phenylsulfonyl)cyclohexyl)benzamide]
22 | > 10000 | > 10000 | 690 | Cn1nc(C(F)(F)F)cc1C(=O)NC1CCC(S(=O)(=O)c2cccc(C(F)(F)F)c2)CC1 (stereo not drawn) [Compound 13, 1-methyl-3-(trifluoromethyl)-N-(4-(3-(trifluoromethyl)phenylsulfonyl)cyclohexyl)-1H-pyrazole-5-carboxamide]
23 | 1320 | 330 | 2210 | O=C(NC1CCC(S(=O)(=O)c2cccc(C(F)(F)F)c2)CC1)c1ccn(CC(F)(F)F)n1 (stereo not drawn) [Compound 14, 1-(2,2,2-trifluoroethyl)-N-(4-(3-(trifluoromethyl)phenylsulfonyl)cyclohexyl)-1H-pyrazole-3-carboxamide]
24 | 2790 | 4660 | 360 | COc1cc(F)cc(C(=O)NC2CCC(S(=O)(=O)c3cccc(C(F)(F)F)c3)CC2)c1 (stereo not drawn) [Compound 25, 3-fluoro-5-methoxy-N-(4-(3-(trifluoromethyl)phenylsulfonyl)cyclohexyl)benzamide]
25 | 2790 | > 10000 | 210 | O=C(NC1CCC(S(=O)(=O)c2cccc(C(F)(F)F)c2)CC1)c1cc(F)cc(Cl)c1 (stereo not drawn) [Compound 26, 3-chloro-5-fluoro-N-(4-(3-(trifluoromethyl)phenylsulfonyl)cyclohexyl)benzamide]
26 | 1150 | 5540 | 360 | O=C(NC[C@H]1CC[C@@H](S(=O)(=O)c2cccc(C(F)(F)F)c2)CC1)c1ccc(F)c(C(F)(F)F)c1 [Compound 31, 4-fluoro-3-(trifluoromethyl)-N-(((1S,4S)-4-(3-(trifluoromethyl)phenylsulfonyl)cyclohexyl)methyl)benzamide]
27 | 500 | 2690 | 440 | Cn1nc(C(F)(F)F)cc1C(=O)NC[C@H]1CC[C@@H](S(=O)(=O)c2cccc(C(F)(F)F)c2)CC1 [Compound 32, 1-methyl-3-(trifluoromethyl)-N-(((1S,4S)-4-(3-(trifluoromethyl)phenylsulfonyl)cyclohexyl)methyl)-1H-pyrazole-5-carboxamide]
28 | 9280 | 3620 | 1310 | O=C(CNC[C@H]1CC[C@@H](S(=O)(=O)c2cccc(C(F)(F)F)c2)CC1)NCC(F)(F)F [Compound 37, N-(2,2,2-trifluoroethyl)-2-(((1S,4S)-4-(3-(trifluoromethyl)phenylsulfonyl)cyclohexyl)methylamino)acetamide]

From patent publication US20120245137A1 (Zalicus Pharmaceuticals Ltd., priority 2009, published 2012)
